Measurements reported in PubChem BioAssay (NCI).
Where “and” joins values, the source holds several entries; their conditions need not be identical. Equal entries are not always repeated.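 Following 48 hours of exposure in 96-well plates, responses at five concentrations were used to interpolate endpoints linearly. GI50 = concentration required for 50% inhibition of growth. Definition used: TGI = concentration required for complete inhibition of growth.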

Tested on: CAKI-1 renal
Test: NCI tumour cell line growth inhibition, 48 h

SMILES	TGI [µM]	GI50 [µM]
O=C(/C=C/c1c(O)ccc2ccccc12)c1cccc(O)c1	> 100	
CC1=NN(C(=O)Nc2ccccc2)C(=O)C2CCC(=O)N12 (stereo not drawn)	> 100	
COC(=O)C1Cc2c(n(Cc3ccccc3)c3ccccc23)C(CCC(=O)O)N1C(C)C (stereo not drawn)	> 100	
O=C(O)CNS(=O)(=O)c1ccc(NCc2ccccc2)cc1	> 100	
C[C@]12CC[C@H]3[C@@H](CC=C4C[C@@H](O)CC[C@@]43C)[C@@H]1CC[C@@H]2N(CCO)CCO	> 100	
CC(C)(C)C1C=C(Sc2ccccc2)C(=O)O1 (stereo not drawn)	> 100	
CCC[CH2][Sn]1([CH2]CCC)[O]Cc2nc(C)ccc2[O]1	9.03	2.36
O=c1/c(=C/c2ccco2)sc2nc3ccccc3n12	> 100	> 100
COc1ccc(/C=C/c2nccc3ccccc23)cc1OC	> 10	

Tested on: OVCAR-4 ovarian
Test: NCI tumour cell line growth inhibition, 48 h

SMILES	TGI	GI50
COC(=O)c1c/c(=N\NC(=O)CC(=O)Nc2ccccc2OC)c2ccccc2o1	> 100 µM	
Cn1c2ccccc2c2c(-c3ccccc3)[n+]3ccncc3nc21	> 100 µM	> 100 µM
NC(CCC(=O)NC(CSSCCCCS(=O)O)C(=O)NCC(=O)O)C(=O)O (stereo not drawn)	> 100 µM	
COC12C=C(C)C(CC1)CC2C(=O)O (stereo not drawn)	> 100 µM	
OCC(O)CC[CH2][Sn]([Br])([c]1ccccc1)[c]1ccccc1 (stereo not drawn)	> 100 µM	> 100 µM
CCc1ccc(/C=C\c2cc(OC)c(OC)c(OC)c2)cc1	> 100 µM	
O=c1c2cc([N+](=O)[O-])ccc2sc2ccsc12	> 100 µM	
C=CCCCCCCCCC(=O)[O][Sn]([CH2]CCC)([CH2]CCC)[CH2]CCC	0.251 µM	0.12 µM
COc1ccc(C2=CC3CCC2C3)cc1 (stereo not drawn)	> 100 µM	
[Cl-].[Dy+3].[O-]/N=C(\c1ccccc1)c1ccccn1.[O-]/N=C(\c1ccccc1)c1ccccn1.[O-]/N=C(\c1ccccc1)c1ccccn1	> 100 µM	44.3 µM
COc1ccc(/C(COc2c(-c3ccccc3)oc3ccccc3c2=O)=N\O)cc1	> 50 µM	37.1 µM
NC(=O)C(=O)N/N=C(\CC1(O)C(=O)Nc2ccccc21)c1ccc2ccccc2c1 (stereo not drawn)	> 100 µM	
Cc1cc2c(cc1C)[n+](=O)c(C(=O)C/C(=N/NC(=O)CC#N)C(=O)Nc1ccccc1C(F)(F)F)c(C)n2[O-]	> 100 µM	
COc1cc([N+](=O)[O-])cc2c3c(n(C)c12)[C@@]1(C)CCC2c4ccc(OCc5ccccc5)cc4CCC2C1C3 (stereo partly drawn)	> 100 µM	61.6 µM
COC(=O)/C(=N/NC(=O)C[N+](C)(C)C)C(C(=O)OC)C(=O)C(=O)Nc1ccc(F)cc1 (stereo not drawn)	> 100 µM	
CC[C@@H]1C(=O)N(C)c2cnc(Nc3ccc(C(=O)NC4CCN(C)CC4)cc3OC)nc2N1C1CCCC1	9.87 µM and 4.4 µM	0.303 µM and 0.163 µM
O=C(c1ccccc1)c1nnc(C(=O)c2ccccc2)nn1	> 344 µM	
Brc1cccc(C=NC23CC4CC(CC(C4)C2)C3)c1	> 100 µM	

SMILES	TGI	GI50
Nc1nc(Cl)c2ncn(Cc3ccc(C45CC6CC(CC(C6)C4)C5)c(O)c3)c2n1	3.82 µM	0.991 µM
CCC(C)c1c(Cl)nc(Cl)nc1Cl (stereo not drawn)	46.2 µM	
CC(C)c1nc(CN(C)C(=O)N[C@H](C(=O)N[C@@H](Cc2ccccc2)C[C@H](O)[C@H](Cc2ccccc2)NC(=O)OCc2cncs2)C(C)C)cs1	> 92.1 µM	27.2 µM
CCC[CH2][Sn]([CH2]CCC)([O]C(=O)c1cccnc1SC)[O]C(=O)c1cccnc1SC	3.06 µM	1.62 µM
O=C1O[C@@H](c2ccc3c(c2)OCO3)C2C(=O)O[C@@H](c3ccc4c(c3)OCO4)C12 (stereo partly drawn)	> 100 µM	
O=C1CCC(=O)N2CCCCN12	> 100 µM	
CC(C)C(=O)NC(=S)Nc1ccc([N+](=O)[O-])cc1C#N	> 100 µM	
N#Cc1cc([N+](=O)[O-])ccc1NC(=O)C(=O)Nc1n[nH]c(N)n1	> 100 µM	
O=C(/C=C/c1c(O)ccc2ccccc12)c1cccc(O)c1	> 100 µM	
CC1=NN(C(=O)Nc2ccccc2)C(=O)C2CCC(=O)N12 (stereo not drawn)	> 100 µM	
COC(=O)C1Cc2c(n(Cc3ccccc3)c3ccccc23)C(CCC(=O)O)N1C(C)C (stereo not drawn)	> 100 µM	
O=C(O)CNS(=O)(=O)c1ccc(NCc2ccccc2)cc1	> 100 µM	
C[C@]12CC[C@H]3[C@@H](CC=C4C[C@@H](O)CC[C@@]43C)[C@@H]1CC[C@@H]2N(CCO)CCO	> 100 µM	
CC(C)(C)C1C=C(Sc2ccccc2)C(=O)O1 (stereo not drawn)	> 100 µM	
CCC[CH2][Sn]1([CH2]CCC)[O]Cc2nc(C)ccc2[O]1	17.6 µM	3.95 µM
O=c1/c(=C/c2ccco2)sc2nc3ccccc3n12	> 100 µM	> 100 µM
COc1ccc(/C=C/c2nccc3ccccc23)cc1OC	> 10 µM	
O=C1CCC2(c3ccc(F)cc3)Nc3cc(Cl)ccc3N12 (stereo not drawn)	> 100 µM	

Tested on: 786-0 renal
Test: NCI tumour cell line growth inhibition, 48 h

SMILES	TGI	GI50
COC(=O)c1c/c(=N\NC(=O)CC(=O)Nc2ccccc2OC)c2ccccc2o1	> 100 µM	
Cn1c2ccccc2c2c(-c3ccccc3)[n+]3ccncc3nc21	> 100 µM	> 100 µM
NC(CCC(=O)NC(CSSCCCCS(=O)O)C(=O)NCC(=O)O)C(=O)O (stereo not drawn)	> 100 µM	
COC12C=C(C)C(CC1)CC2C(=O)O (stereo not drawn)	> 100 µM	
COc1ccc(-c2cnnc3c(-c4cccc(C(F)(F)F)c4)cnn23)cc1	> 100 µM	2.76 µM
OCC(O)CC[CH2][Sn]([Br])([c]1ccccc1)[c]1ccccc1 (stereo not drawn)	> 100 µM	> 100 µM
CCc1ccc(/C=C\c2cc(OC)c(OC)c(OC)c2)cc1	14 µM	0.0353 µM
O=c1c2cc([N+](=O)[O-])ccc2sc2ccsc12	> 100 µM	
C=CCCCCCCCCC(=O)[O][Sn]([CH2]CCC)([CH2]CCC)[CH2]CCC	0.275 µM	0.143 µM
COc1ccc(C2=CC3CCC2C3)cc1 (stereo not drawn)	> 100 µM	
COc1ccc(/C=C/CN(C)CCc2ccccc2)cc1OC	> 100 µM	
[Cl-].[Dy+3].[O-]/N=C(\c1ccccc1)c1ccccn1.[O-]/N=C(\c1ccccc1)c1ccccn1.[O-]/N=C(\c1ccccc1)c1ccccn1	96.6 µM	32.2 µM
COc1ccc(/C(COc2c(-c3ccccc3)oc3ccccc3c2=O)=N\O)cc1	> 50 µM	40.6 µM
NC(=O)C(=O)N/N=C(\CC1(O)C(=O)Nc2ccccc21)c1ccc2ccccc2c1 (stereo not drawn)	> 100 µM	
Cc1cc2c(cc1C)[n+](=O)c(C(=O)C/C(=N/NC(=O)CC#N)C(=O)Nc1ccccc1C(F)(F)F)c(C)n2[O-]	> 100 µM	
COc1cc([N+](=O)[O-])cc2c3c(n(C)c12)[C@@]1(C)CCC2c4ccc(OCc5ccccc5)cc4CCC2C1C3 (stereo partly drawn)	> 100 µM	> 100 µM
COC(=O)/C(=N/NC(=O)C[N+](C)(C)C)C(C(=O)OC)C(=O)C(=O)Nc1ccc(F)cc1 (stereo not drawn)	> 100 µM	
CC[C@@H]1C(=O)N(C)c2cnc(Nc3ccc(C(=O)NC4CCN(C)CC4)cc3OC)nc2N1C1CCCC1	1.62 µM and 3.98 µM	0.025 µM and 0.0451 µM

SMILES	TGI	GI50
O=C(c1ccccc1)c1nnc(C(=O)c2ccccc2)nn1	> 344 µM	
Brc1cccc(C=NC23CC4CC(CC(C4)C2)C3)c1	> 100 µM	
Nc1nc(Cl)c2ncn(Cc3ccc(C45CC6CC(CC(C6)C4)C5)c(O)c3)c2n1	20 µM	6.04 µM
CCC(C)c1c(Cl)nc(Cl)nc1Cl (stereo not drawn)	30 µM	
CC(C)c1nc(CN(C)C(=O)N[C@H](C(=O)N[C@@H](Cc2ccccc2)C[C@H](O)[C@H](Cc2ccccc2)NC(=O)OCc2cncs2)C(C)C)cs1	53.5 µM	24.7 µM
CCC[CH2][Sn]([CH2]CCC)([O]C(=O)c1cccnc1SC)[O]C(=O)c1cccnc1SC	1.98 µM	0.67 µM
O=C1O[C@@H](c2ccc3c(c2)OCO3)C2C(=O)O[C@@H](c3ccc4c(c3)OCO4)C12 (stereo partly drawn)	> 100 µM	
O=C1CCC(=O)N2CCCCN12	> 100 µM	
CC(C)C(=O)NC(=S)Nc1ccc([N+](=O)[O-])cc1C#N	> 100 µM	
C/C(CC(=O)Nc1cc(Cl)c(Cl)cc1Cl)=N\NC(N)=O	> 100 µM	
N#Cc1cc([N+](=O)[O-])ccc1NC(=O)C(=O)Nc1n[nH]c(N)n1	> 100 µM	
O=C(/C=C/c1c(O)ccc2ccccc12)c1cccc(O)c1	> 100 µM	
CC1=NN(C(=O)Nc2ccccc2)C(=O)C2CCC(=O)N12 (stereo not drawn)	> 100 µM	
COC(=O)C1Cc2c(n(Cc3ccccc3)c3ccccc23)C(CCC(=O)O)N1C(C)C (stereo not drawn)	> 100 µM	
O=C(O)CNS(=O)(=O)c1ccc(NCc2ccccc2)cc1	> 100 µM	
C[C@]12CC[C@H]3[C@@H](CC=C4C[C@@H](O)CC[C@@]43C)[C@@H]1CC[C@@H]2N(CCO)CCO	42.7 µM	
CC(C)(C)C1C=C(Sc2ccccc2)C(=O)O1 (stereo not drawn)	> 100 µM	
CCC[CH2][Sn]1([CH2]CCC)[O]Cc2nc(C)ccc2[O]1	16.8 µM	5.04 µM
